The test system of one experiment is morphine effect. The experiment in a line: Narcotic antagonist activity, modified rat tail flick test. To be noted: for ED50: Rattus norvegicus, ip, read-out: AD50 (the source's name); for narcotic antagonist activity: in words. In kind it is in vivo, rats (male albino Wistar). As for the experimental part:
(B) Narcotic antagonist activity in rats (modified rat tail flick test).
TEST B. EVALUATION OF NARCOTIC ANTAGONIST ACTIVITY
The narcotic antagonist effects of test compounds were determined by a modification of the rat tail flick procedure of Harris and Pierson (J. Pharmacol. Exp. Ther. 143,141 [1964]).
Male albino Wistar rats (100-120 g) were used for this study. A rat's tail is so placed so as to cover a photocell. Heat is applied by a lamp in a reflector with a timer being connected to the lamp and photocell so that the timer goes on when the light is turned on and is turned off when the photocell is uncovered. A rheostat, incorporated into a heating lamp is used to adjust the intensity of the light falling on the tail of the rat such that the rat's control reaction time is from two to four seconds. Animals with a control reaction time outside this range are rejected. The rheostat adjustment is made only if a significant proportion (more than 2 out of every 10 rats) of the reaction times are outside the range of two to four seconds. Groups of five rats were used each time, and two control times were determined at 60 and 30 minutes prior to subcutaneous injection of the drug.
Thirty minutes after the last control run the test drug was given intraperitoneally. This was followed ten minutes later by an ED80 dose of morphine subcutaneously. The animals were retested at 20 minutes after the morphine injection. Control animals were given vehicle and morphine only. The data were calculated as follows: [formula]
The data were plotted on log-probit paper and AD50 values, i.e., the dose required to inhibit the morphine effect by 50% within 95% confidence limits, were determined by the method of Litchfield and Wilcoxon.
On the technique in general: Thermal pain tests record how soon the animal reacts.

The subject of another experiment is writhing. The experiment in a line: Acetic acid mouse writhing test (analgesic effects). It counts as in vivo, mice (male CD-1). To be noted: for analgesic activity / analgesic/narcotic antagonist profile: in words; for analgesic/narcotic antagonist profile: from writhing ED50 and tail flick AD50 together. The procedure: (A) Analgesic effects upon mice (acetic acid writhing test).
TEST A. ACETIC ACID MOUSE WRITHING TEST
The analgesic effects of test compounds were determined in mice by use of the acetic acid writhing test described by B. J. R. Whittle, Brit. J. Pharmacol., 22:246 (1964). In this test at least three groups of five male CD-1 mice (18-22 g) each were given subcutaneous doses of the test drug dissolved in either distilled water or distilled water acidified with HCl depending on the solubility of the compound. In all cases, 0.4 milliliter of a 0.5% V/V acetic acid in distilled water solution was administered intraperitoneally 15 minutes post drug. The number of writhes in a 20 min. interval beginning 5 minutes after the acetic acid injection were determined and compared with the number of writhes in control groups which had received only acetic acid.
Percent inhibition of writhing was calculated as: [formula]
The ED50 dose, i.e., the dose required to reduce the number of writhes by 50%, was determined graphically from a plot of % inhibition as a probit versus log dose. Confidence limits of 95% were calculated on the basis of those results falling in the range 16-84% inhibition. See Litchfield, J. T. and Wilcoxon, F., J. Pharmacol. Exp. Ther., 96, 99-113, (1949).
For orientation: In writhing tests, fewer writhes than in controls are read as antinociception.

Setting [1] is: rats, test drug i.p. 10 minutes before ED80 dose of morphine s.c., Table I.
[2] abbreviates: Mus musculus, sc, 0.25 h, mice, subcutaneous, acetic acid i.p. 15 minutes post drug, Table I, read-out: ED50.
The mark [3] stands for this setting: mice, subcutaneous, acetic acid i.p. 15 minutes post drug, Table I.

Where a name gives a salt, the structure may show the parent alone. Read-outs that look alike come from different tables or passages of the source. Bounds are passed on as bounds.

Take `COc1ccc2c3c1O[C@H]1C(=O)CC[C@H]4[C@@H](C2)N(CC2CC2)CC[C@]314` [TR-5095, 7,8-dihydro-17-cyclopropylmethylnorcodeinone, reference compound]: the ED50 in the experiment with morphine effect (setting [1]) is 3.4 mg/kg; with writhing (setting [2]), 17 mg/kg.
On to `Br.COc1ccc2c3c1O[C@H]1C(=O)CC[C@H]4[C@@H](C2)N(CC2CCC2)CC[C@]314` [TR-5108, 17-Cyclobutylmethyl-4,5α-epoxy-3-methoxymorphinan-6-one Hydrobromide, reference compound], for which, in the experiment on morphine effect (setting [1]), the AD50 entry is listed as “IA.3”. The ED50 in the experiment with writhing (setting [2]) was 8.8 mg/kg.
For `CC[C@H]1CC(=O)[C@@H]2Oc3c(OC)ccc4c3[C@@]23CCN(CC2CC2)[C@H](C4)[C@H]13.Cl` [TR-5109, 17-Cyclopropylmethyl-4,5α-epoxy-8β-ethyl-3-methoxymorphinan-6-one Hydrochloride], the ED50 was 0.78 mg/kg in the experiment with morphine effect (setting [1]) and 2.1 mg/kg in the experiment with writhing (setting [2]). Besides, the narcotic antagonist activity result in the experiment with morphine effect is “especially effective narcotic antagonists”. The analgesic activity result with writhing is listed as “especially effective analgesics”.
In the case of `CC[C@H]1CC(=O)[C@@H]2Oc3c(O)ccc4c3[C@@]23CCN(CC2CCC2)[C@H](C4)[C@H]13` [TR-5115, 17-Cyclobutylmethyl-4,5α-epoxy-8β-ethyl-3-hydroxymorphinan-6-one], the ED50 was 0.52 mg/kg with morphine effect (setting [1]) and 9.2 mg/kg in the experiment with writhing (setting [2]). Also, in the experiment on morphine effect, the narcotic antagonist activity entry is reported as “especially effective narcotic antagonists”.
Consider `CC[C@H]1CC(=O)[C@@H]2Oc3c(O)ccc4c3[C@@]23CCN(CC2CC2)[C@H](C4)[C@H]13` [TR-5126, 17-Cyclopropylmethyl-4,5α-epoxy-8β-ethyl-3-hydroxymorphinan-6-one], for which the ED50 stood at 0.25 mg/kg in the experiment with morphine effect (setting [1]) and 7.8 mg/kg in the experiment with writhing (setting [2]). The narcotic antagonist activity entry in the experiment with morphine effect is given as “especially effective narcotic antagonists”.
In the case of `C=CCN1CC[C@]23c4c5ccc(OC)c4O[C@H]2C(=O)C[C@H](CC)[C@H]3[C@H]1C5.Cl` [TR-5256, 17-Allyl-4,5α-epoxy-8β-ethyl-3-methoxymorphinan-6-one Hydrochloride], the ED50 in the experiment on morphine effect (setting [1]) turned out to be 5.6 mg/kg. In the experiment on writhing, the analgesic/narcotic antagonist profile result is “some mixed analgesic narcotic antagonist activity but is not particularly potent in either respect”.
Turning to `C=CCN1CC[C@]23c4c5ccc(O)c4O[C@H]2C(=O)C[C@H](CC)[C@H]3[C@H]1C5.Cl` [TR-5266, 17-Allyl-4,5α-epoxy-8β-ethyl-3-hydroxymorphinan-6-one Hydrochloride], the values for the ED50 in the experiment with morphine effect (setting [1]) and in the experiment on writhing (setting [3]) were 0.58 mg/kg and “IA 10”, respectively. For the same molecule, in the experiment on morphine effect, the narcotic antagonist activity result is recorded as “especially effective narcotic antagonists”. Further, the analgesic activity entry in the experiment with writhing was “except for TR-5266 they demonstrate analgesic activity”.
For `CC[C@H]1CC(=O)[C@@H]2Oc3c(O)ccc4c3[C@@]23CCN(CC2CCCO2)[C@H](C4)[C@H]13.Cl` (stereo partly drawn) [TR-5271, 4,5α-Epoxy-8β-ethyl-3-hydroxy-17-tetrahydrofurfuryl-morphinan-6-one Hydrochloride], the ED50 in the experiment on morphine effect (setting [1]) worked out at 1.8 mg/kg; in the experiment on writhing (setting [2]), 1.06 mg/kg. The analgesic activity entry with writhing was “especially effective analgesics”.
`COc1ccc2c3c1O[C@H]1C(=O)[C@@H](C)C[C@H]4[C@@H](C2)N(CC2CC2)CC[C@]314` [TR-5394, Hydrochloride]: the results for the ED50 with morphine effect (setting [1]) and with writhing (setting [3]) were 1.6 mg/kg and “IA 10”, respectively.
For the molecule `C[C@H]1C[C@H]2[C@H]3Cc4ccc(O)c5c4[C@@]2(CCN3CC2CC2)[C@@H](O5)C1=O` [TR-5402, 17-Cyclopropylmethyl-4,5α-epoxy-3-hydroxy-7α-methylmorphinan-6-one], the ED50 is 1.63 mg/kg in the experiment with morphine effect (agonist-antagonist potency, unit inferred); 0.42 mg/kg in the experiment with writhing (setting [2]); 0.42 mg/kg in the experiment on writhing (Mus musculus, sc, agonist-antagonist potency, unit inferred, read-out: ED50). The analgesic/narcotic antagonist profile result in the experiment with writhing was “mixed analgesics/narcotic antagonists”.
Consider `COc1ccc2c3c1O[C@H]1C(=O)[C@@H](C)C[C@H]4[C@@H](C2)N(CC2CCC2)CC[C@]314.Cl` [TR-5403, 17-Cyclobutylmethyl-4,5α-epoxy-3-methoxy-7α-methylmorphinan-6-one Hydrochloride], for which the ED50 in the experiment with morphine effect (rats, vs morphine, *Estimated) is 16.5 mg/kg; in the experiment with writhing (setting [2]) it was 9 mg/kg.
For `C[C@H]1C[C@H]2[C@H]3Cc4ccc(O)c5c4[C@@]2(CCN3CC2CCC2)[C@@H](O5)C1=O` [TR-5404, 17-Cyclobutylmethyl-4,5α-epoxy-3-hydroxy-7α-methylmorphinan-6-one Hydrochloride], the ED50 in the experiment with morphine effect (setting [1]) is 13.2 mg/kg; with writhing (setting [2]), 0.3 mg/kg.
Regarding `COc1ccc2c3c1O[C@H]1C(=O)[C@@H](C)[C@H](C)[C@H]4[C@@H](C2)N(CC2CC2)CC[C@@]341` [TR-5410, 17-Cyclopropylmethyl-7α,8β-dimethyl-4,5-epoxy-3-methoxymorphinan-6-one Hydrochloride], the ED50 was 0.98 mg/kg with morphine effect (setting [1]) and more than 10 mg/kg in the experiment on writhing (setting [2]).
As for `C[C@@H]1[C@H]2[C@H]3Cc4ccc(O)c5c4[C@@]2(CCN3CC2CC2)[C@@H](O5)C(=O)[C@H]1C.Cl` [TR-5416, 17-Cyclopropylmethyl-7α,8β-dimethyl-4,5α-epoxy-3-hydroxymorphinan-6-one Hydrochloride], the figures for the ED50 with morphine effect (setting [1]) and with writhing (setting [3]) were 0.57 mg/kg and “IA 10”, respectively. The analgesic/narcotic antagonist profile entry in the experiment with writhing was “pure narcotic antagonist”.
For `CC[C@@H]1CC(=O)[C@@H]2Oc3c(OC)ccc4c3[C@@]23CCN(CC2CC2)[C@H](C4)[C@H]13.O=C(O)C(O)C(O)C(=O)O` [TR-5427, 17-Cyclopropylmethyl-4,5α-epoxy-8α-ethyl-3-methoxymorphinan-6-one Tartrate], the ED50 in the experiment on morphine effect (setting [1]) and with writhing (setting [2]) was more than 10 mg/kg each time.
For `CC[C@@H]1CC(=O)[C@@H]2Oc3c(OC)ccc4c3[C@@]23CCN(CC2CCC2)[C@H](C4)[C@H]13.O=C(O)C(O)C(O)C(=O)O` [TR-5428, 17-Cyclobutylmethyl-4,5α-epoxy-8α-ethyl-3-methoxymorphinan-6-one Tartrate], in the experiment with morphine effect (setting [1]), the AD50 entry is “IA 10”. For the same molecule, the ED50 entry with writhing (setting [3]) is “IA 10”.
Consider `COc1ccc2c3c1O[C@H]1C(=O)[C@@H](C)[C@H](C)[C@H]4[C@@H](C2)N(CC2CCC2)CC[C@@]341` [TR-5429, 17-Cyclobutylmethyl-7α,8β-dimethyl-4,5α-epoxy-3-methoxymorphinan-6-one], for which the ED50 in the experiment on morphine effect (setting [1]) was approximately 10 mg/kg; in the experiment on writhing (setting [2]), more than 10 mg/kg.
In the case of `C[C@@H]1[C@H]2[C@H]3Cc4ccc(O)c5c4[C@@]2(CCN3CC2CCC2)[C@@H](O5)C(=O)[C@H]1C` [TR-5430, 17-Cyclobutylmethyl-7α,8β-dimethyl-4,5α-epoxy-3-hydroxymorphinan-6-one], the values for the ED50 in the experiment on morphine effect (setting [1]) and in the experiment on writhing (setting [2]) were 2.5 mg/kg and 5.8 mg/kg, respectively. Also, the analgesic/narcotic antagonist profile entry in the experiment with writhing is on record as “mixed analgesics/narcotic antagonists”.
`CC[C@@H]1CC(=O)[C@@H]2Oc3c(O)ccc4c3[C@@]23CCN(CC2CC2)[C@H](C4)[C@H]13.Cl` [TR-5436, 17-Cyclopropylmethyl-4,5α-epoxy-8α-ethyl-3-hydroxymorphinan-6-one Hydrochloride]: the ED50 in the experiment on morphine effect (setting [1]) came to 4.1 mg/kg; in the experiment on writhing (setting [2]), 0.36 mg/kg. Further, the narcotic antagonist activity entry in the experiment with morphine effect was “also exhibits narcotic antagonist activity”. Moreover, the analgesic activity result in the experiment with writhing is on record as “strong analgesic”. In addition, the analgesic/narcotic antagonist profile result in the experiment on writhing was “mixed analgesic/narcotic antagonist”.
As for `CC[C@@H]1CC(=O)[C@@H]2Oc3c(O)ccc4c3[C@@]23CCN(CC2CCC2)[C@H](C4)[C@H]13.Cl` [TR-5437, 17-Cyclobutylmethyl-4,5α-epoxy-8α-ethyl-3-hydroxymorphinan-6-one Hydrochloride], the ED50 in the experiment on morphine effect (setting [1]) is more than 10 mg/kg; in the experiment with writhing (setting [2]), 0.15 mg/kg. The analgesic/narcotic antagonist profile result with writhing is on record as “pure analgesic”.

The values are drawn from patent US4272541A, “7,8 and 7-8 Substituted 4,5α-epoxymorphinan-6-one compounds, and methods of treating pain and drug dependence with them” (Miles Laboratories, Inc., priority 1979, dated 1981).
